How the values were obtained:
[1] = oral pharmacokinetics in male CD1 mice (plasma, LC/MS/MS); format: in vivo; conditions: oral 10 mg/kg; for F: fraction of the dose that enters systemic circulation
Human LDHA = Human LDHA (Homo sapiens (Human), UniProt P00338); test: human LDHA primary biochemical assay (resazurin/diaphorase coupled, fluorescence); conditions: LDHA inhibitory activity, activity level based on IC50 (Table 7)
From the text: Test compounds were placed in a Greiner Bio-One (Monroe, N.C.) 1536-well black solid bottom assay plate. 200 millimolar (mM) Tris HCl, pH 7.4, 100 micromolar […] EDTA and 0.01% TWEEN-20™, final concentration, was used as the assay buffer. The LDHA reagent was 2 nanomolar (nM) Human LDHA (Meridian Life Science, Inc., Memphis, Tenn.), final concentration, in assay buffer.

MiaPaCa2 cells = test: cell-based HT lactate assay, colorimetric/fluorometric detection (inhibition of lactate production); conditions: Homo sapiens, MIA PaCa-2; class symbols, 0 to 3 pluses

Row | SMILES | AUC(0-t) ([1]; mouse, plasma) | Cmax ([1]; mouse, plasma) | F [1] | IC50 (Human LDHA) | IC50 (MiaPaCa2 cells)
1 | NS(=O)(=O)c1ccc(Cc2c(-c3cccc(-c4ccccc4)c3)nn(-c3nc(C(=O)O)cs3)c2C(F)(F)F)cc1 [Compound 42, 2-(3-([1,1′-biphenyl]-3-yl)-4-(4-sulfamoylbenzyl)-5-(trifluoromethyl)-1H-pyrazol-1-yl)thiazole-4-carboxylic acid] | 1210 ng·h/mL | 159 ng/mL | 34% |  | 
2 | CCOC(=O)c1csc(-n2nc(-c3cccc(-c4ccccc4)c3)c(Cc3ccc(S(N)(=O)=O)cc3)c2C(F)(F)F)n1 [Compound 141, ethyl 2-(3-([1,1′-bipheny]-3-yl)-4-(4-sulfamoylbenzyl)-5-(trifluoromethyl)-1H-pyrazol-1-yl)thiazole-4-carboxylate] |  |  | 69% |  | 
3 | NS(=O)(=O)c1ccc(Cc2c(-c3cc(F)cc(-c4ccc(F)cc4)c3)nn(-c3nc(C(=O)O)cs3)c2CC2CC2)cc1 [Compound 479, 2-(5-(cyclopropylmethyl)-3-(4′,5-difluoro-[1,1′-biphenyl]-3-yl)-4-(4-sulfamoylbenzyl)-1H-pyrazol-1-yl)thiazole-4-carboxylic Acid] |  |  |  | < 0.1 µM | < 1 µM
4 | NS(=O)(=O)c1ccc(Cc2c(-c3ccc(F)c(OCc4ccccc4)c3)nn(-c3nc(C(=O)O)cs3)c2CC2CC2)cc1 [Compound 480, 2-(3-(3-(benzyloxy)-4-fluorophenyl)-5-(cyclopropylmethyl)-4-(4-sulfamoylbenzyl)-1H-pyrazol-1-yl)thiazole-4-carboxylic Acid] |  |  |  | < 0.1 µM | < 1 µM
5 | NS(=O)(=O)c1ccc(Cc2c(-c3cccc(Oc4ccc(C(F)(F)F)cc4)c3)nn(-c3nc(C(=O)O)cs3)c2CC2CC2)cc1 [Compound 481, 2-(5-(cyclopropylmethyl)-4-(4-sulfamoylbenzyl)-3-(3-(4-(trifluoromethyl)phenoxy)-phenyl)-1H-pyrazol-1-yl)thiazole-4-carboxylic Acid] |  |  |  | < 0.1 µM | 1 to 10 µM
6 | NS(=O)(=O)c1ccc(Cc2c(-c3cccc(OCc4ccccc4)c3)nn(-c3nc(C(=O)O)cs3)c2C2CC2)cc1 [Compound 501, 2-(3-(3-(benzyloxy)phenyl)-5-cyclopropyl-4-(4-sulfamoylbenzyl)-1H-pyrazol-1-yl)thiazole-4-carboxylic acid] |  |  |  | < 0.1 µM | 1 to 10 µM
7 | NS(=O)(=O)c1ccc(Cc2c(-c3cccc(Oc4ccccc4)c3)nn(-c3nc(C(=O)O)cs3)c2C2CC2)cc1 [Compound 502, 2-(5-cyclopropyl-3-(3-phenoxyphenyl)-4-(4-sulfamoylbenzyl)-1H-pyrazol-1-yl)thiazole-4-carboxylic acid] |  |  |  | < 0.1 µM | 1 to 10 µM
8 | NS(=O)(=O)c1ccc(Cc2c(-c3cccc(Oc4ccccc4)c3)nn(-c3nc(C(=O)O)cs3)c2CC2CC2)cc1 [Compound 503, 2-(5-(cyclopropylmethyl)-3-(3-phenoxyphenyl)-4-(4-sulfamoylbenzyl)-1H-pyrazol-1-yl)thiazole-4-carboxylic Acid] |  |  |  | < 0.1 µM | 1 to 10 µM
9 | Cc1cc(-c2cccc(F)c2)cc(-c2nn(-c3nc(C(=O)O)cs3)c(CC3CC3)c2Cc2ccc(S(N)(=O)=O)cc2)c1 [Compound 505, 2-(5-(cyclopropylmethyl)-3-(3′-fluoro-5-methyl-[1,1′-biphenyl]-3-yl)-4-(4-sulfamoylbenzyl)-1H-pyrazol-1-yl)thiazole-4-carboxylic Acid] |  |  |  | < 0.1 µM | 1 to 10 µM
10 | Cc1cc(-c2ccc(F)cc2)cc(-c2nn(-c3nc(C(=O)O)cs3)c(CC3CC3)c2Cc2ccc(S(N)(=O)=O)cc2)c1 [Compound 506, 2-(5-(cyclopropylmethyl)-3-(4′-fluoro-5-methyl-[1,1′-biphenyl]-3-yl)-4-(4-sulfamoylbenzyl)-1H-pyrazol-1-yl)thiazole-4-carboxylic Acid] |  |  |  | < 0.1 µM | 1 to 10 µM
11 | NS(=O)(=O)c1ccc(Cc2c(-c3cccc(Oc4ccc(F)cc4)c3)nn(-c3nc(C(=O)O)cs3)c2CC2CC2)cc1 [Compound 507, 2-(5-(cyclopropylmethyl)-3-(3-(4-fluorophenoxy)phenyl)-4-(4-sulfamoylbenzyl)-1H-pyrazol-1-yl)thiazole-4-carboxylic Acid] |  |  |  | < 0.1 µM | 1 to 10 µM
12 | NS(=O)(=O)c1ccc(Cc2c(-c3ccc(F)c(Oc4ccccc4)c3)nn(-c3nc(C(=O)O)cs3)c2CC2CC2)cc1 [Compound 508, 2-(5-(cyclopropylmethyl)-3-(4-fluoro-3-phenoxyphenyl)-4-(4-sulfamoylbenzyl)-1H-pyrazol-1-yl)thiazole-4-carboxylic Acid] |  |  |  | < 0.1 µM | 1 to 10 µM
13 | NS(=O)(=O)c1ccc(Cc2c(-c3ccc(F)c(Oc4cccc(F)c4)c3)nn(-c3nc(C(=O)O)cs3)c2CC2CC2)cc1F [Compound 509, 2-(5-(cyclopropylmethyl)-3-(4-fluoro-3-(3-fluorophenoxy)phenyl)-4-(3-fluoro-4-sulfamoylbenzyl)-1H-pyrazol-1-yl)thiazole-4-carboxylic Acid] |  |  |  | < 0.1 µM | < 1 µM
14 | Cc1ccc(Oc2cc(-c3nn(-c4nc(C(=O)O)cs4)c(CC4CC4)c3Cc3ccc(S(N)(=O)=O)c(F)c3)ccc2F)cc1 [Compound 510, 2-(5-(cyclopropylmethyl)-3-(4-fluoro-3-(p-tolyloxy)phenyl)-4-(3-fluoro-4-sulfamoylbenzyl)-1H-pyrazol-1-yl)thiazole-4-carboxylic Acid] |  |  |  | < 0.1 µM | < 1 µM
15 | NS(=O)(=O)c1ccc(Cc2c(-c3ccc(F)c(Oc4ccc(F)cc4)c3)nn(-c3nc(C(=O)O)cs3)c2CC2CC2)cc1F [Compound 511, 2-(5-(cyclopropylmethyl)-3-(4-fluoro-3-(4-fluorophenoxy)phenyl)-4-(3-fluoro-4-sulfamoylbenzyl)-1H-pyrazol-1-yl)thiazole-4-carboxylic Acid] |  |  |  | < 0.1 µM | 1 to 10 µM
16 | NS(=O)(=O)c1ccc(Cc2c(-c3ccc(F)c(Oc4ccc(C(F)(F)F)cc4)c3)nn(-c3nc(C(=O)O)cs3)c2CC2CC2)cc1F [Compound 512, 2-(5-(cyclopropylmethyl)-3-(4-fluoro-3-(4-(trifluoromethyl)phenoxy)phenyl)-4-(3-fluoro-4-sulfamoylbenzyl)-1H-pyrazol-1-yl)thiazole-4-carboxylic Acid] |  |  |  | < 0.1 µM | < 1 µM
17 | NS(=O)(=O)c1ccc(Cc2c(-c3cc(F)cc(-c4cccc(F)c4)c3)nn(-c3nc(C(=O)O)cs3)c2CC2CC2)cc1 [Compound 523, 2-(5-(cyclopropylmethyl)-3-(3′,5-difluoro-[1,1′-biphenyl]-3-yl)-4-(4-sulfamoylbenzyl)-1H-pyrazol-1-yl)thiazole-4-carboxylic acid] |  |  |  | 0.1 to 1 µM | 1 to 10 µM
18 | NS(=O)(=O)c1ccc(Cc2c(-c3cccc(Oc4cccc(F)c4)c3)nn(-c3nc(C(=O)O)cs3)c2CC2CC2)cc1 [Compound 526, 2-(5-(cyclopropylmethyl)-3-(3-(3-fluorophenoxy)phenyl)-4-(4-sulfamoylbenzyl)-1H-pyrazol-1-yl)thiazole-4-carboxylic Acid] |  |  |  | 0.1 to 1 µM | 10 to 57 µM
19 | NS(=O)(=O)c1ccc(Cc2c(-c3ccc(F)c(OCc4ccc(F)cc4)c3)nn(-c3nc(C(=O)O)cs3)c2CC2CC2)cc1 [Compound 527, 2-(5-(cyclopropylmethyl)-3-(4-fluoro-3-((4-fluorobenzyl)oxy)phenyl)-4-(4-sulfamoylbenzyl)-1H-pyrazol-1-yl)thiazole-4-carboxylic Acid] |  |  |  | < 0.1 µM | 1 to 10 µM
20 | NS(=O)(=O)c1ccc(Cc2c(-c3ccc(F)c(OCc4cccc(F)c4)c3)nn(-c3nc(C(=O)O)cs3)c2CC2CC2)cc1F [Compound 528, 2-(5-(cyclopropylmethyl)-3-(4-fluoro-3-((3-fluorobenzyl)oxy)phenyl)-4-(3-fluoro-4-sulfamoylbenzyl)-1H-pyrazol-1-yl)thiazole-4-carboxylic Acid] |  |  |  | < 0.1 µM | < 1 µM
21 | NS(=O)(=O)c1ccc(Cc2c(-c3ccc(F)c(C(F)(F)F)c3)nn(-c3nc(C(=O)O)cs3)c2CC2CC2)cc1F [Compound 542, 2-(5-(cyclopropylmethyl)-3-(4-fluoro-3-(trifluoromethyl)phenyl)-4-(3-fluoro-4-sulfamoylbenzyl)-1H-pyrazol-1-yl)thiazole-4-carboxylic acid] |  |  |  | < 0.1 µM | 1 to 10 µM
22 | CC(C)(C)NC(=O)c1cc(-c2nn(-c3nc(C(=O)O)cs3)c(CC3CC3)c2Cc2ccc(S(N)(=O)=O)c(F)c2)ccc1F [Compound 543, 2-(3-(3-(tert-butylcarbamoyl)-4-fluorophenyl)-5-(cyclopropylmethyl)-4-(3-fluoro-4-sulfamoylbenzyl)-1H-pyrazol-1-yl)thiazole-4-carboxylic acid] |  |  |  | < 0.1 µM | 1 to 10 µM
23 | NS(=O)(=O)c1ccc(Cc2c(-c3ccc(F)c(C(=O)NCc4ccccc4)c3)nn(-c3nc(C(=O)O)cs3)c2CC2CC2)cc1F [Compound 544, 2-(3-(3-(benzylcarbamoyl)-4-fluorophenyl)-5-(cyclopropylmethyl)-4-(3-fluoro-4-sulfamoylbenzyl)-1H-pyrazol-1-yl)thiazole-4-carboxylic acid] |  |  |  | < 0.1 µM | 1 to 10 µM
24 | NS(=O)(=O)c1ccc(Cc2c(-c3ccc(F)c(C(=O)N4CCCC4)c3)nn(-c3nc(C(=O)O)cs3)c2CC2CC2)cc1F [Compound 545, 2-(5-(cyclopropylmethyl)-3-(4-fluoro-3-(pyrrolidine-1-carbonyl)phenyl)-4-(3-fluoro-4-sulfamoylbenzyl)-1H-pyrazol-1-yl)thiazole-4-carboxylic acid] |  |  |  | < 0.1 µM | 10 to 57 µM

Reference: US10961200B2, “Small molecule inhibitors of lactate dehydrogenase and methods of use thereof” (THE UNITED STATES OF AMERICA, AS REPRESENTED BY THE …, priority 2014, dated 2021)
